Laboratory results from ChEMBL document CHEMBL1201862, “PubChem BioAssay data set” (2004).
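Briefly, cells in 96-well plates were exposed to five compound concentrations for 48 h, and endpoints were estimated by linear interpolation. At the GI50, growth is halved.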 The source made the active and inactive calls. Rule as the data show it: active = GI50 up to about 1.1 µM and inactive = higher.

How the values were obtained:
Assay in all cases: growth of human tumour cells (NCI), 48 h
NCI-H460 = system: NCI-H460
RXF 631 = system: RXF 631
Malme-3M = system: Malme-3M
DMS-273 = system: DMS-273
SR = system: SR
786-0 = system: 786-0
HCT-15 = system: HCT-15
SW-620 = system: SW-620
HOP-92 = system: HOP-92
OVCAR-8 = system: OVCAR-8
SF-539 = system: SF-539
RXF 393 = system: RXF 393
RPMI-8226 = system: RPMI-8226
UACC-62 = system: UACC-62
LXFL 529 = system: LXFL 529
HT-29 = system: HT-29
DMS-114 = system: DMS-114
LOX IMVI = system: LOX IMVI
MOLT-4 = system: MOLT-4
NCI-H23 = system: NCI-H23
UACC-257 = system: UACC-257
DLD-1 = system: DLD-1
SK-MEL-5 = system: SK-MEL-5
A498 = system: A498
TK-10 = system: TK-10
U-251 = system: U-251
SNB-75 = system: SNB-75
A549 = system: A549
M19-MEL = system: M19-MEL
HOP-18 = system: HOP-18
HL-60 = system: HL-60
SNB-19 = system: SNB-19
M14 = system: M14
OVCAR-5 = system: OVCAR-5
SN12C = system: SN12C
K562 = system: K562
SK-OV-3 = system: SK-OV-3
UO-31 = system: UO-31
OVCAR-3 = system: OVCAR-3
HOP-62 = system: HOP-62
NCI-H522 = system: NCI-H522
OVCAR-4 = system: OVCAR-4
SF-295 = system: SF-295
NCI-H226 = system: NCI-H226
CCRF-CEM = system: CCRF-CEM
COLO 205 = system: COLO 205
XF498 = system: XF498
SNB-78 = system: SNB-78
SF-268 = system: SF-268
CAKI-1 = system: CAKI-1
KM12 = system: KM12
SK-MEL-2 = system: SK-MEL-2
SK-MEL-28 = system: SK-MEL-28
HCC 2998 = system: HCC 2998
ACHN = system: ACHN
EKVX = system: EKVX
KM-20L2 = system: KM-20L2
HCT-116 = system: HCT-116
IGROV-1 = system: IGROV-1

O=C(c1ccccc1)C1OC12C(=O)Nc1c(Cl)cc(Cl)cc12 (centres undefined)
GI50 (NCI-H460): 30.3 µM (inactive)
GI50 (RXF 631): 27 µM (inactive)
GI50 (Malme-3M): > 74.5 µM (inactive)
GI50 (DMS-273): 15.9 µM (inactive)
GI50 (SR): 11.6 µM (inactive)
GI50 (786-0): 16.3 µM (inactive)
GI50 (HCT-15): 24.3 µM
GI50 (SW-620): 16.1 µM (inactive)
GI50 (HOP-92): > 35.9 µM (inactive)
GI50 (OVCAR-8): 17 µM (inactive)
GI50 (SF-539): 45.8 µM (inactive)
GI50 (RXF 393): 24.4 µM (inactive)
GI50 (RPMI-8226): 47.5 µM (inactive)
GI50 (UACC-62): 29.9 µM (inactive)
GI50 (LXFL 529): 23.6 µM (inactive)
GI50 (HT-29): 33.6 µM (inactive)
GI50 (DMS-114): 30.1 µM (inactive)
GI50 (LOX IMVI): 23.4 µM (inactive)
GI50 (MOLT-4): 10.2 µM (inactive)
GI50 (NCI-H23): 58.2 µM (inactive)
GI50 (UACC-257): > 100 µM (inactive)
GI50 (DLD-1): 18.6 µM (inactive)
GI50 (SK-MEL-5): > 74.3 µM (inactive)
GI50 (A498): > 92 µM (inactive)
GI50 (TK-10): > 94.4 µM (inactive)
GI50 (U-251): 41.5 µM (inactive)
GI50 (SNB-75): 7.87 µM (inactive)
GI50 (A549): > 64.9 µM (inactive)
GI50 (M19-MEL): 27 µM (inactive)
GI50 (HOP-18): > 54.7 µM (inactive)
GI50 (HL-60): 16.4 µM (inactive)
GI50 (SNB-19): 66.2 µM (inactive)
GI50 (M14): 31.5 µM (inactive)
GI50 (OVCAR-5): > 100 µM (inactive)
GI50 (SN12C): 27.2 µM (inactive)
GI50 (K562): 15.3 µM (inactive)
GI50 (SK-OV-3): > 53 µM (inactive)
GI50 (UO-31): > 57.1 µM (inactive)
GI50 (OVCAR-3): 60.3 µM (inactive)
GI50 (HOP-62): > 55.2 µM (inactive)
GI50 (NCI-H522): 17.5 µM (inactive)
GI50 (OVCAR-4): 8.2 µM (inactive)
GI50 (SF-295): 47.2 µM (inactive)
GI50 (NCI-H226): 5.6 µM (inactive)
GI50 (CCRF-CEM): 8.65 µM (inactive)
GI50 (COLO 205): 19.7 µM (inactive)
GI50 (XF498): 10.7 µM (inactive)
GI50 (SNB-78): > 50.5 µM (inactive)
GI50 (SF-268): 35.2 µM (inactive)
GI50 (CAKI-1): 24.8 µM (inactive)
GI50 (KM12): > 100 µM (inactive)
GI50 (SK-MEL-2): 99.1 µM (inactive)
GI50 (SK-MEL-28): > 100 µM (inactive)
GI50 (HCC 2998): > 92.3 µM (inactive)
GI50 (ACHN): 23.8 µM (inactive)
GI50 (EKVX): 57.8 µM (inactive)
GI50 (KM-20L2): 72.1 µM (inactive)
GI50 (HCT-116): 23.7 µM (inactive)
GI50 (IGROV-1): > 59.4 µM (inactive)
